Results taken from patent US12128035B2, “Activating pyruvate kinase R” (Novo Nordisk Health Care AG, priority 2021, dated 2024).

Test system: 2,3-DPG blood levels
Experiment: Phase 1 SAD/MAD: blood 2,3-DPG (LC-MS/MS) in healthy volunteers
Assay type: in vivo, human
Conditions: for median and mean reduction in 2,3-DPG, relative to baseline: all MAD dose levels
Experimental: In this study, SAD/MAD cohorts are randomized (3 to 1) to receive Compound 1 or placebo (P). Compound 1 was evaluated first in 4 healthy SAD cohorts and 4 healthy MAD (14-day dosing period) cohorts. Based on the safety, and PK/PD profile from HS, Compound 1 is then evaluated in 1 SCD SAD cohort and 2 SCD MAD cohorts. Specifically, based on the safety and pharmacokinetic/pharmacodynamics (PK/PD) profile in healthy volunteer studies, Compound 1 is evaluated in patients (pts) with SCD, first in a single dose (SD or SAD) cohort and then in multiple-dose (MD or MAD) cohorts (14-day and 12-week). Safety assessments include AEs, vital signs, ECGs and laboratory parameters. PK/PD blood sampling was performed on Day 1 (SAD/MAD) and Day 14 (MAD) and up to 72 h after the last dose and at the end-of-study visit. PD parameters included 2,3-DPG, ATP, and p50 in all cohorts with additional PD studies (including oxygen scan) performed only in the SCD cohorts. PD parameters included 2,3-DPG, ATP, p50, RBC deformability with controlled deoxygenation and reoxygenation (Lorrca® oxygen scan) and varying osmolality (Lorrca® osmoscan)). To maintain study blind, pt identifiers were removed when needed.
In the SAD cohorts, the subjects' blood 2,3-DPG levels were measured periodically after dosing by a qualified LC-MS/MS method for the quantitation of 2,3-DPG in blood. Decreased 2,3-DPG blood levels were observed 6 hours following a single dose of Compound 1 at all dose levels (earlier timepoints were not collected). Maximum decreases in 2,3-DPG levels generally occurred ˜24 hours after the first dose with the reduction sustained ˜48-72 hr postdose. Table 15 reports the median percentage change in 2,3-DPG blood levels, relative to baseline, measured over time in healthy volunteers after a single dose of Compound 1 (200 mg, 400 mg, 700 mg, or 1000 mg) or placebo. Table 16 reports the mean percentage change in 2,3-DPG blood levels, relative to baseline, measured over time in healthy volunteers after a single dose of Compound 1 (200 mg, 400 mg, 700 mg, or 1000 mg). Accordingly, the median and mean reduction in the concentration of 2,3-DPG, relative to baseline, was at least about 30% at all dose levels tested 24 hours after administration of the single dose.
In the MAD cohorts, the subjects' blood 2,3-DPG levels were measured periodically after dosing by a qualified LC-MS/MS method for the quantitation of 2,3-DPG in blood. […] Table 18B reports the mean percentage change in 2,3-DPG blood levels, relative to baseline, measured over time after the first dose on days 1 and 14 in healthy volunteers who received daily doses of Compound 1 (100 mg BID, 200 mg BID, 300 mg BID, or 400 mg QD) for 14 days. Accordingly, the median and mean reduction in the concentration of 2,3-DPG, relative to baseline, was at least about 25% at all dose levels tested 24 hours after administration of the first dose on day 1 and at least about 40% at all dose levels tested 24 hours after administration of the first dose on day 14.
The following procedures are employed for the analysis of ATP and 2,3-DPG in human whole blood K2EDTA using a protein precipitation extraction procedure and analysis by LC-MS/MS.
The following procedures are used for sample extraction prior to analysis via LC-MS/MS. 15.0 μL of the calibration standards, quality controls, matrix blanks, and samples are aliquoted into a 96-well plate. 50.0 μL of the internal standard spiking solution is added to all samples on the plate, with the exception of the matrix blank samples; 50.0 μL of water is added to the matrix blank samples. Subsequently, 150 μL of water is added to all samples on the plate. The plate is then covered and agitated by vortex at high speed for ten minutes, after which 750 μL of methanol is added to all samples on the plate. The plate is covered and agitated by vortex for approximately 1 minute. The plate is then centrifuged at approximately 3500 RPM at approximately 4° C. for five minutes. […]

[1] = HV single 400 mg, 48 h after dose
[2] = HV single 400 mg, 72 h after dose
[3] = HV single 700 mg, 0 h after dose
[4] = HV single 700 mg, 6 h after dose
[5] = HV single 700 mg, 8 h after dose
[6] = HV single 700 mg, 12 h after dose
[7] = HV single 700 mg, 16 h after dose
[8] = HV single 700 mg, 24 h after dose
[9] = HV single 700 mg, 36 h after dose
[10] = HV single 700 mg, 48 h after dose
[11] = HV single 700 mg, 72 h after dose
[12] = HV single 1000 mg, 0 h after dose
[13] = HV single 1000 mg, 6 h after dose
[14] = HV single 1000 mg, 8 h after dose
[15] = HV single 1000 mg, 12 h after dose
[16] = HV single 1000 mg, 16 h after dose
[17] = HV single 1000 mg, 24 h after dose
[18] = HV single 1000 mg, 36 h after dose
[19] = HV single 1000 mg, 48 h after dose
[20] = HV single 1000 mg, 72 h after dose

O=C([C@H](CO)c1ccccc1)N1CC2=C(C1)CN(S(=O)(=O)c1cnc3c(c1)OCCO3)C2 (single isomer, unassigned) [Compound 1]
Mean Percentage Change in 2,3-DPG Levels [1]: −34% | Median Percentage Change in 2,3-DPG Levels [1]: −31% | Mean Percentage Change in 2,3-DPG Levels [2]: −30% | Median Percentage Change in 2,3-DPG Levels [2]: −30% | Mean Percentage Change in 2,3-DPG Levels [3]: 0% | Median Percentage Change in 2,3-DPG Levels [3]: 0.0% | Mean Percentage Change in 2,3-DPG Levels [4]: −30% | Median Percentage Change in 2,3-DPG Levels [4]: −29% | Mean Percentage Change in 2,3-DPG Levels [5]: −29% | Median Percentage Change in 2,3-DPG Levels [5]: −28% | Mean Percentage Change in 2,3-DPG Levels [6]: −41% | Median Percentage Change in 2,3-DPG Levels [6]: −41% | Mean Percentage Change in 2,3-DPG Levels [7]: −46% | Median Percentage Change in 2,3-DPG Levels [7]: −46% | Mean Percentage Change in 2,3-DPG Levels [8]: −49% | Median Percentage Change in 2,3-DPG Levels [8]: −49% | Mean Percentage Change in 2,3-DPG Levels [9]: −47% | Median Percentage Change in 2,3-DPG Levels [9]: −46% | Mean Percentage Change in 2,3-DPG Levels [10]: −48% | Median Percentage Change in 2,3-DPG Levels [10]: −48% | Mean Percentage Change in 2,3-DPG Levels [11]: −32% | Median Percentage Change in 2,3-DPG Levels [11]: −33% | Mean Percentage Change in 2,3-DPG Levels [12]: 0% | Median Percentage Change in 2,3-DPG Levels [12]: 0.0% | Mean Percentage Change in 2,3-DPG Levels [13]: −18% | Median Percentage Change in 2,3-DPG Levels [13]: −21% | Mean Percentage Change in 2,3-DPG Levels [14]: −31% | Median Percentage Change in 2,3-DPG Levels [14]: −33% | Mean Percentage Change in 2,3-DPG Levels [15]: −35% | Median Percentage Change in 2,3-DPG Levels [15]: −38% | Mean Percentage Change in 2,3-DPG Levels [16]: −40% | Median Percentage Change in 2,3-DPG Levels [16]: −40% | Mean Percentage Change in 2,3-DPG Levels [17]: −44% | Median Percentage Change in 2,3-DPG Levels [17]: −48% | Mean Percentage Change in 2,3-DPG Levels [18]: −46% | Median Percentage Change in 2,3-DPG Levels [18]: −47% | Mean Percentage Change in 2,3-DPG Levels [19]: −43% | Median Percentage Change in 2,3-DPG Levels [19]: −44% | Mean Percentage Change in 2,3-DPG Levels [20]: −27% | Median Percentage Change in 2,3-DPG Levels [20]: −24% | lag of maximum decrease in blood 2,3-DPG behind maximum plasma concentration (HV single 200, 400, 700 or 1000 mg): about 24 hours | time of maximal decrease in blood 2,3-DPG post-dose (HV single dose (400 mg), FIG. 41): 16 to 24 h | mean maximum reduction in the concentration of 2,3-DPG (MAD study): at least 50% | mean maximum reduction of 2,3-DPG, range (MAD study): 46.1-63.6% | mean maximum reduction in the concentration of 2,3-DPG (SAD study): at least 40% | mean maximum reduction of 2,3-DPG, range (SAD study): 35.4-56.1% | median and mean reduction in 2,3-DPG, relative to baseline (24 hours after first dose on day 1): at least 25% | median and mean reduction in 2,3-DPG, relative to baseline (24 hours after first dose on day 14): at least 40% | median and mean reduction in the concentration of 2,3-DPG, relative to baseline (all SAD dose levels, 24 hours after the single dose): at least 30%
